How the values were obtained:
Format in all cases: functional
Conditions in all cases: read-out: Activity
RPMI-8226 = assay: Growth inhibition of human RPMI-8226 cells assessed as cell growth at 10 uM incubated for 48 hrs by sulforhodamine B assay relative to control
KM12 = assay: Growth inhibition of human KM12 cells assessed as cell growth at 10 uM incubated for 48 hrs by sulforhodamine B assay relative to control
MCF7 = assay: Growth inhibition of human MCF7 cells assessed as cell growth at 10 uM incubated for 48 hrs by sulforhodamine B assay relative to control
RXF 393 = assay: Growth inhibition of human RXF 393 cells assessed as cell growth at 10 uM incubated for 48 hrs by sulforhodamine B assay relative to control
HCT-116 = assay: Growth inhibition of human HCT-116 cells assessed as cell growth at 10 uM incubated for 48 hrs by sulforhodamine B assay relative to control
M14 = assay: Growth inhibition of human M14 cells assessed as cell growth at 10 uM incubated for 48 hrs by sulforhodamine B assay relative to control
NCI/ADR-RES = assay: Growth inhibition of human NCI/ADR-RES cells assessed as cell growth at 10 uM incubated for 48 hrs by sulforhodamine B assay relative to control
OVCAR-8 = assay: Growth inhibition of human OVCAR-8 cells assessed as cell growth at 10 uM incubated for 48 hrs by sulforhodamine B assay relative to control
SF-539 = assay: Growth inhibition of human SF-539 cells assessed as cell growth at 10 uM incubated for 48 hrs by sulforhodamine B assay relative to control
TK-10 = assay: Growth inhibition of human TK-10 cells assessed as cell growth at 10 uM incubated for 48 hrs by sulforhodamine B assay relative to control
SK-MEL-5 = assay: Growth inhibition of human SK-MEL-5 cells assessed as cell growth at 10 uM incubated for 48 hrs by sulforhodamine B assay relative to control
NCI-H522 = assay: Growth inhibition of human NCI-H522 cells assessed as cell growth at 10 uM incubated for 48 hrs by sulforhodamine B assay relative to control
NCI-H23 = assay: Growth inhibition of human NCI-H23 cells assessed as cell growth at 10 uM incubated for 48 hrs by sulforhodamine B assay relative to control
NCI-H226 = assay: Growth inhibition of human NCI-H226 cells assessed as cell growth at 10 uM incubated for 48 hrs by sulforhodamine B assay relative to control
SK-OV-3 = assay: Growth inhibition of human SK-OV-3 cells assessed as cell growth at 10 uM incubated for 48 hrs by sulforhodamine B assay relative to control
MDA-MB-231 = assay: Growth inhibition of human MDA-MB-231 cells assessed as cell growth at 10 uM incubated for 48 hrs by sulforhodamine B assay relative to control
COLO 205 = assay: Growth inhibition of human COLO 205 cells assessed as cell growth at 10 uM incubated for 48 hrs by sulforhodamine B assay relative to control
DU-145 = assay: Growth inhibition of human DU-145 cells assessed as cell growth at 10 uM incubated for 48 hrs by sulforhodamine B assay relative to control
CCRF-CEM = assay: Growth inhibition of human CCRF-CEM cells assessed as cell growth at 10 uM incubated for 48 hrs by sulforhodamine B assay relative to control
T47D = assay: Growth inhibition of human T47D cells assessed as cell growth at 10 uM incubated for 48 hrs by sulforhodamine B assay relative to control
BT-549 = assay: Growth inhibition of human BT-549 cells assessed as cell growth at 10 uM incubated for 48 hrs by sulforhodamine B assay relative to control
MDA-MB-468 = assay: Growth inhibition of human MDA-MB-468 cells assessed as cell growth at 10 uM incubated for 48 hrs by sulforhodamine B assay relative to control
EKVX = assay: Growth inhibition of human EKVX cells assessed as cell growth at 10 uM incubated for 48 hrs by sulforhodamine B assay relative to control
SF-268 = assay: Growth inhibition of human SF-268 cells assessed as cell growth at 10 uM incubated for 48 hrs by sulforhodamine B assay relative to control
LOX IMVI = assay: Growth inhibition of human LOX IMVI cells assessed as cell growth at 10 uM incubated for 48 hrs by sulforhodamine B assay relative to control
IGROV-1 = assay: Growth inhibition of human IGROV-1 cells assessed as cell growth at 10 uM incubated for 48 hrs by sulforhodamine B assay relative to control
SK-MEL-2 = assay: Growth inhibition of human SK-MEL-2 cells assessed as cell growth at 10 uM incubated for 48 hrs by sulforhodamine B assay relative to control
SNB-75 = assay: Growth inhibition of human SNB-75 cells assessed as cell growth at 10 uM incubated for 48 hrs by sulforhodamine B assay relative to control
MDA-MB-435 = assay: Growth inhibition of human MDA-MB-435 cells assessed as cell growth at 10 uM incubated for 48 hrs by sulforhodamine B assay relative to control
MOLT-4 = assay: Growth inhibition of human MOLT-4 cells assessed as cell growth at 10 uM incubated for 48 hrs by sulforhodamine B assay relative to control
A549 = assay: Growth inhibition of human A549/ATCC cells assessed as cell growth at 10 uM incubated for 48 hrs by sulforhodamine B assay relative to control
SK-MEL-28 = assay: Growth inhibition of human SK-MEL-28 cells assessed as cell growth at 10 uM incubated for 48 hrs by sulforhodamine B assay relative to control
SW-620 = assay: Growth inhibition of human SW-620 cells assessed as cell growth at 10 uM incubated for 48 hrs by sulforhodamine B assay relative to control
U-251 = assay: Growth inhibition of human U-251 cells assessed as cell growth at 10 uM incubated for 48 hrs by sulforhodamine B assay relative to control
SNB-19 = assay: Growth inhibition of human SNB-19 cells assessed as cell growth at 10 uM incubated for 48 hrs by sulforhodamine B assay relative to control
786-0 = assay: Growth inhibition of human 786-0 cells assessed as cell growth at 10 uM incubated for 48 hrs by sulforhodamine B assay relative to control
Malme-3M = assay: Growth inhibition of human Malme-3M cells assessed as cell growth at 10 uM incubated for 48 hrs by sulforhodamine B assay relative to control
HCT-15 = assay: Growth inhibition of human HCT-15 cells assessed as cell growth at 10 uM incubated for 48 hrs by sulforhodamine B assay relative to control
HOP-62 = assay: Growth inhibition of human HOP-62 cells assessed as cell growth at 10 uM incubated for 48 hrs by sulforhodamine B assay relative to control
HL-60(TB) = assay: Growth inhibition of human HL-60(TB) cells assessed as cell growth at 10 uM incubated for 48 hrs by sulforhodamine B assay relative to control

Compound	growth at 10 µM (RPMI-8226)	growth at 10 µM (KM12)	growth at 10 µM (MCF7)	growth at 10 µM (RXF 393)	growth at 10 µM (HCT-116)	growth at 10 µM (M14)	growth at 10 µM (NCI/ADR-RES)	growth at 10 µM (OVCAR-8)	growth at 10 µM (SF-539)	growth at 10 µM (TK-10)	growth at 10 µM (SK-MEL-5)	growth at 10 µM (NCI-H522)	growth at 10 µM (NCI-H23)	growth at 10 µM (NCI-H226)	growth at 10 µM (SK-OV-3)	growth at 10 µM (MDA-MB-231)	growth at 10 µM (COLO 205)	growth at 10 µM (DU-145)	growth at 10 µM (CCRF-CEM)	growth at 10 µM (T47D)	other results
CC(=O)Nc1cccc(NC(=O)c2ccc(C(=O)Nc3cc(CO)cc(NC(C)=O)c3)cc2)c1	92%	111%	93.3%	106%	105%	101%	113%	106%	106%	98.8%	103%	89.1%	105%	97.1%	103%	110%	111%	117%	93%	86.2%	growth at 10 µM (BT-549): 116%; growth at 10 µM (MDA-MB-468): 110%; growth at 10 µM (EKVX): 112%; growth at 10 µM (SF-268): 103%; growth at 10 µM (LOX IMVI): 103%; growth at 10 µM (IGROV-1): 110%; growth at 10 µM (SK-MEL-2): 88.1%; growth at 10 µM (SNB-75): 94.9%; growth at 10 µM (MDA-MB-435): 105%; growth at 10 µM (MOLT-4): 92.7%; growth at 10 µM (A549): 108%; growth at 10 µM (SK-MEL-28): 111%; growth at 10 µM (SW-620): 104%; growth at 10 µM (U-251): 111%; growth at 10 µM (SNB-19): 112%; growth at 10 µM (786-0): 112%; growth at 10 µM (Malme-3M): 107%; growth at 10 µM (HCT-15): 104%; growth at 10 µM (HOP-62): 106%; growth at 10 µM (HL-60(TB)): 96.9%
CC(=O)Nc1cc(CO)cc(NC(=O)c2ccc(C(=O)Nc3cc(CO)cc(NC(C)=O)c3)cc2)c1	94.5%	136%	97.4%	103%	98.6%	104%	110%	107%	99.6%	103%	104%	94.1%	103%	94.9%	101%	104%	109%	127%	87.4%	92%	growth at 10 µM (BT-549): 99.5%; growth at 10 µM (MDA-MB-468): 101%; growth at 10 µM (EKVX): 115%; growth at 10 µM (SF-268): 115%; growth at 10 µM (LOX IMVI): 96.8%; growth at 10 µM (IGROV-1): 103%; growth at 10 µM (SK-MEL-2): 93.3%; growth at 10 µM (SNB-75): 102%; growth at 10 µM (MDA-MB-435): 102%; growth at 10 µM (MOLT-4): 101%; growth at 10 µM (A549): 108%; growth at 10 µM (SK-MEL-28): 117%; growth at 10 µM (SW-620): 114%; growth at 10 µM (U-251): 112%; growth at 10 µM (SNB-19): 102%; growth at 10 µM (786-0): 103%; growth at 10 µM (Malme-3M): 113%; growth at 10 µM (HCT-15): 104%; growth at 10 µM (HOP-62): 102%; growth at 10 µM (HL-60(TB)): 107%
CC(=O)Nc1cc(CO)cc(NC(=O)c2ccccc2)c1	106%	116%	106%	119%	105%	109%	105%	102%	111%	119%	105%	97.9%	50.8%	115%	99.4%	109%	115%	105%	110%	103%	growth at 10 µM (BT-549): 105%; growth at 10 µM (MDA-MB-468): 106%; growth at 10 µM (EKVX): 103%; growth at 10 µM (SF-268): 103%; growth at 10 µM (LOX IMVI): 99%; growth at 10 µM (IGROV-1): 110%; growth at 10 µM (SK-MEL-2): 111%; growth at 10 µM (SNB-75): 122%; growth at 10 µM (MDA-MB-435): 105%; growth at 10 µM (MOLT-4): 98.7%; growth at 10 µM (A549): 100%; growth at 10 µM (SK-MEL-28): 109%; growth at 10 µM (SW-620): 106%; growth at 10 µM (U-251): 99.4%; growth at 10 µM (SNB-19): 106%; growth at 10 µM (786-0): 104%; growth at 10 µM (Malme-3M): 109%; growth at 10 µM (HCT-15): 107%; growth at 10 µM (HOP-62): 104%; growth at 10 µM (HL-60(TB)): 85.6%
CC(=O)Nc1cc(CO)cc(NC(=O)c2ccc(C(=O)Nc3cccc(NC(=O)CCCN(C)C)c3)cc2)c1	95.6%	83.1%	25.2%	113%	79%	81%	107%	105%	88%	117%	77.7%	79.5%	99.1%	93.6%	117%	88.6%	76.3%	105%	41.2%	82.4%	growth at 10 µM (BT-549): 108%; growth at 10 µM (MDA-MB-468): 83.8%; growth at 10 µM (EKVX): 95.5%; growth at 10 µM (SF-268): 79.4%; growth at 10 µM (LOX IMVI): 88.1%; growth at 10 µM (IGROV-1): 87.4%; growth at 10 µM (SK-MEL-2): 91.8%; growth at 10 µM (SNB-75): 62.2%; growth at 10 µM (MDA-MB-435): 70%; growth at 10 µM (MOLT-4): 57.9%; growth at 10 µM (A549): 108%; growth at 10 µM (SK-MEL-28): 85.3%; growth at 10 µM (SW-620): 98.2%; growth at 10 µM (U-251): 69.9%; growth at 10 µM (SNB-19): 114%; growth at 10 µM (786-0): 104%; growth at 10 µM (Malme-3M): 17.6%; growth at 10 µM (HCT-15): 105%; growth at 10 µM (HOP-62): 77.7%; growth at 10 µM (HL-60(TB)): 91.2%
CCN(CC)CC(=O)Nc1ccc(C(=O)Nc2cc(CO)cc(NC(C)=O)c2)cc1	126%	107%	100%	110%	109%	109%	110%	107%	99.7%	99.2%	103%	105%	104%	95.8%	107%	112%	118%	119%	98.2%	99.1%	growth at 10 µM (BT-549): 112%; growth at 10 µM (MDA-MB-468): 99.4%; growth at 10 µM (EKVX): 104%; growth at 10 µM (SF-268): 107%; growth at 10 µM (LOX IMVI): 106%; growth at 10 µM (IGROV-1): 129%; growth at 10 µM (SK-MEL-2): 107%; growth at 10 µM (SNB-75): 110%; growth at 10 µM (MDA-MB-435): 96.3%; growth at 10 µM (MOLT-4): 120%; growth at 10 µM (A549): 95.7%; growth at 10 µM (SK-MEL-28): 116%; growth at 10 µM (SW-620): 109%; growth at 10 µM (U-251): 108%; growth at 10 µM (SNB-19): 98%; growth at 10 µM (786-0): 97.4%; growth at 10 µM (Malme-3M): 103%; growth at 10 µM (HCT-15): 100%; growth at 10 µM (HOP-62): 101%; growth at 10 µM (HL-60(TB)): 107%

— ChEMBL document CHEMBL4715697, “Synthesis and biological activity of benzamide DNA minor groove binders” (2016)
